PubChem BioAssay (NCI)
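Each compound was tested at five concentrations against cells in 96-well plates for 48 hours. GI50: concentration for 50% inhibition of growth. TGI denotes the concentration required for complete inhibition of growth.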

Legend:
Experiment in all cases: DTP human tumour cell line panel, 48 h
HCC-2998 colon = test system: HCC-2998 colon
PC-3 prostate = test system: PC-3 prostate
SF-268 CNS = test system: SF-268 CNS
MALME-3M melanoma = test system: MALME-3M melanoma
HS 578T breast = test system: HS 578T breast
MCF7 breast = test system: MCF7 breast
DU-145 prostate = test system: DU-145 prostate
SW-620 colon = test system: SW-620 colon
SR leukemia = test system: SR leukemia
SNB-19 CNS = test system: SNB-19 CNS
SN12C renal = test system: SN12C renal
OVCAR-8 ovarian = test system: OVCAR-8 ovarian
KM12 colon = test system: KM12 colon
NCI-H522 lung = test system: NCI-H522 lung
CCRF-CEM leukemia = test system: CCRF-CEM leukemia
RXF 393 renal = test system: RXF 393 renal
HT29 colon = test system: HT29 colon
SF-539 CNS = test system: SF-539 CNS
OVCAR-5 ovarian = test system: OVCAR-5 ovarian
TK-10 renal = test system: TK-10 renal
LOX IMVI melanoma = test system: LOX IMVI melanoma
ACHN renal = test system: ACHN renal
IGROV1 ovarian = test system: IGROV1 ovarian
NCI-H460 lung = test system: NCI-H460 lung
UACC-62 melanoma = test system: UACC-62 melanoma
HCT-116 colon = test system: HCT-116 colon
RPMI-8226 leukemia = test system: RPMI-8226 leukemia
COLO 205 colon = test system: COLO 205 colon
MDA-MB-231 breast = test system: MDA-MB-231 breast
U251 CNS = test system: U251 CNS
SF-295 CNS = test system: SF-295 CNS
HOP-92 NSCLC = test system: HOP-92 NSCLC
786-0 renal = test system: 786-0 renal
HOP-62 NSCLC = test system: HOP-62 NSCLC
UO-31 renal = test system: UO-31 renal
SK-MEL-5 melanoma = test system: SK-MEL-5 melanoma
MDA-MB-435 = test system: MDA-MB-435
HCT-15 colon = test system: HCT-15 colon
EKVX NSCLC = test system: EKVX NSCLC
BT-549 breast = test system: BT-549 breast
OVCAR-4 ovarian = test system: OVCAR-4 ovarian
SNB-75 CNS = test system: SNB-75 CNS
MOLT-4 leukemia = test system: MOLT-4 leukemia
NCI/ADR-RES ovarian = test system: NCI/ADR-RES ovarian
SK-OV-3 ovarian = test system: SK-OV-3 ovarian
CAKI-1 renal = test system: CAKI-1 renal
A498 renal = test system: A498 renal
NCI-H226 lung = test system: NCI-H226 lung
M14 melanoma = test system: M14 melanoma
UACC-257 melanoma = test system: UACC-257 melanoma
A549 NSCLC = test system: A549 NSCLC
SK-MEL-28 melanoma = test system: SK-MEL-28 melanoma
HL-60(TB) leukemia = test system: HL-60(TB) leukemia
K-562 leukemia = test system: K-562 leukemia
SK-MEL-2 melanoma = test system: SK-MEL-2 melanoma
T-47D breast = test system: T-47D breast
NCI-H23 lung = test system: NCI-H23 lung
OVCAR-3 ovarian = test system: OVCAR-3 ovarian

## CN(C)CCN(C)c1ccc2ncc(C#Cc3cncc(C(=O)Nc4ccc(CN5CCN(C)CC5)c(C(F)(F)F)c4)c3)n2n1
HCC-2998 colon
  GI50: 1000 nM
  TGI: 2080 nM
PC-3 prostate
  GI50: 5070 nM
  TGI: 11200 nM
SF-268 CNS
  GI50: 5580 nM
  TGI: 13300 nM
MALME-3M melanoma
  GI50: 2700 nM
  TGI: 9710 nM
HS 578T breast
  GI50: 1680 nM
  TGI: 9750 nM
MCF7 breast
  GI50: 564 nM
  TGI: 1470 nM
DU-145 prostate
  GI50: 3540 nM
  TGI: 9900 nM
SW-620 colon
  GI50: 949 nM
  TGI: 2270 nM
SR leukemia
  GI50: 614 nM
  TGI: 1630 nM
SNB-19 CNS
  GI50: 4750 nM
  TGI: 10800 nM
SN12C renal
  GI50: 2230 nM
  TGI: 7790 nM
OVCAR-8 ovarian
  GI50: 1950 nM
  TGI: 7060 nM
KM12 colon
  GI50: 386 nM
  TGI: 4660 nM
NCI-H522 lung
  GI50: 5080 nM
  TGI: 11800 nM
CCRF-CEM leukemia
  GI50: 1080 nM
  TGI: 2910 nM
RXF 393 renal
  GI50: 876 nM
  TGI: 1630 nM
HT29 colon
  GI50: 822 nM
  TGI: 1910 nM
SF-539 CNS
  GI50: 615 nM
  TGI: 1320 nM
OVCAR-5 ovarian
  GI50: 6210 nM
  TGI: 12900 nM
TK-10 renal
  GI50: 12100 nM
  TGI: 19500 nM
LOX IMVI melanoma
  GI50: 750 nM
  TGI: 1420 nM
ACHN renal
  GI50: 2510 nM
  TGI: 8720 nM
IGROV1 ovarian
  GI50: 1590 nM
  TGI: 5700 nM
NCI-H460 lung
  GI50: 891 nM
  TGI: 1690 nM
UACC-62 melanoma
  GI50: 8210 nM
  TGI: 15700 nM
HCT-116 colon
  GI50: 1570 nM
  TGI: 6960 nM
RPMI-8226 leukemia
  GI50: 955 nM
  TGI: 2160 nM
COLO 205 colon
  GI50: 1210 nM
  TGI: 6510 nM
MDA-MB-231 breast
  GI50: 889 nM
  TGI: 2170 nM
U251 CNS
  GI50: 883 nM
  TGI: 1780 nM
SF-295 CNS
  GI50: 801 nM
  TGI: 1760 nM
HOP-92 NSCLC
  GI50: 1710 nM
  TGI: 8310 nM
786-0 renal
  GI50: 6900 nM
  TGI: 13500 nM
HOP-62 NSCLC
  GI50: 3980 nM
  TGI: 10400 nM
UO-31 renal
  GI50: 6050 nM
  TGI: 12400 nM
SK-MEL-5 melanoma
  GI50: 5080 nM
  TGI: 10900 nM
MDA-MB-435
  GI50: 2170 nM
  TGI: 8720 nM
HCT-15 colon
  GI50: 1140 nM
  TGI: 3140 nM
EKVX NSCLC
  GI50: 4810 nM
  TGI: 11200 nM
BT-549 breast
  GI50: 3370 nM
  TGI: 9440 nM
OVCAR-4 ovarian
  GI50: 933 nM
  TGI: 2750 nM
SNB-75 CNS
  GI50: 879 nM
  TGI: 6570 nM
MOLT-4 leukemia
  GI50: 863 nM
  TGI: 2620 nM
NCI/ADR-RES ovarian
  GI50: 2130 nM
  TGI: 7800 nM
SK-OV-3 ovarian
  GI50: 8010 nM
  TGI: 15000 nM
CAKI-1 renal
  GI50: 4000 nM
  TGI: 10400 nM
A498 renal
  GI50: 6050 nM
  TGI: 12200 nM
NCI-H226 lung
  GI50: 1230 nM
  TGI: 8280 nM
M14 melanoma
  GI50: 854 nM
  TGI: 1710 nM
UACC-257 melanoma
  GI50: 6040 nM
  TGI: 12300 nM
A549 NSCLC
  GI50: 947 nM
  TGI: 2150 nM
SK-MEL-28 melanoma
  GI50: 7580 nM
  TGI: 14300 nM
HL-60(TB) leukemia
  GI50: 1280 nM
  TGI: 2390 nM
K-562 leukemia
  GI50: 22.7 nM
  TGI: 787 nM
SK-MEL-2 melanoma
  GI50: 6090 nM
  TGI: 12500 nM
T-47D breast
  GI50: 7830 nM
  TGI: 15500 nM

## CC1=C[C@H]2O[C@@H]3C[C@H]4OC(=O)/C=C\C=C\[C@H]([C@@H](C)O)OCC/C(C)=C/C(=O)OC[C@@]2(CC1)[C@]4(C)[C@]31CO1
HCC-2998 colon
  GI50: 3.47 nM
  TGI: 12.1 nM
PC-3 prostate
  GI50: 6.63 nM
  TGI: 116 nM
SF-268 CNS
  GI50: 10.6 nM
  TGI: 41.1 nM
MALME-3M melanoma
  GI50: 3.23 nM
  TGI: 11.2 nM
HS 578T breast
  GI50: 7.34 nM
  TGI: 29.8 nM
MCF7 breast
  GI50: 2.76 nM
  TGI: 18.9 nM
DU-145 prostate
  GI50: 4.11 nM
  TGI: 13.9 nM
SW-620 colon
  GI50: 8.1 nM
  TGI: 49.1 nM
SR leukemia
  GI50: 4.05 nM
  TGI: 11.1 nM
SNB-19 CNS
  GI50: 4.14 nM
  TGI: 26.1 nM
SN12C renal
  GI50: 12 nM
  TGI: 74.2 nM
OVCAR-8 ovarian
  GI50: 9.15 nM
  TGI: 45.3 nM
KM12 colon
  GI50: 6.25 nM
  TGI: 132 nM
NCI-H522 lung
  GI50: 2.63 nM
  TGI: 10.6 nM
CCRF-CEM leukemia
  GI50: 4.25 nM
  TGI: 14300 nM
RXF 393 renal
  GI50: 4.37 nM
  TGI: 18.6 nM
NCI-H23 lung
  GI50: 6.14 nM
  TGI: 27 nM
HT29 colon
  GI50: 4.26 nM
  TGI: 18.8 nM
SF-539 CNS
  GI50: 3.65 nM
  TGI: 11.5 nM
OVCAR-5 ovarian
  GI50: 12 nM
  TGI: 67.9 nM
TK-10 renal
  GI50: 9.23 nM
  TGI: 39.5 nM
LOX IMVI melanoma
  GI50: 2.77 nM
  TGI: 10.6 nM
ACHN renal
  GI50: 8.52 nM
  TGI: 65 nM
IGROV1 ovarian
  GI50: 4.4 nM
  TGI: 41.7 nM
NCI-H460 lung
  GI50: 2.46 nM
  TGI: 6.92 nM
UACC-62 melanoma
  GI50: 6.99 nM
  TGI: 23.5 nM
HCT-116 colon
  GI50: 2.37 nM
  TGI: 8.21 nM
RPMI-8226 leukemia
  GI50: 3.82 nM
  TGI: 10.4 nM
COLO 205 colon
  GI50: 7.33 nM
  TGI: 18.9 nM
MDA-MB-231 breast
  GI50: 17.4 nM
  TGI: 77.5 nM
U251 CNS
  GI50: 4.43 nM
  TGI: 26.4 nM
SF-295 CNS
  GI50: 8.91 nM
  TGI: 34.9 nM
HOP-92 NSCLC
  GI50: 11.6 nM
  TGI: 84.3 nM
786-0 renal
  GI50: 3.93 nM
  TGI: 24.9 nM
HOP-62 NSCLC
  GI50: 6.42 nM
  TGI: 26.3 nM
UO-31 renal
  GI50: 5.43 nM
  TGI: 33.5 nM
SK-MEL-5 melanoma
  GI50: 2.58 nM
  TGI: 7.77 nM
MDA-MB-435
  GI50: 7.94 nM
  TGI: 31.9 nM
HCT-15 colon
  GI50: 3.71 nM
  TGI: 23.6 nM
EKVX NSCLC
  GI50: 7.64 nM
  TGI: 52.4 nM
BT-549 breast
  GI50: 3.87 nM
  TGI: 10.8 nM
OVCAR-4 ovarian
  GI50: 7.24 nM
  TGI: 69.9 nM
SNB-75 CNS
  GI50: 8.15 nM
  TGI: 24.7 nM
MOLT-4 leukemia
  GI50: 2.38 nM
  TGI: 469 nM
NCI/ADR-RES ovarian
  GI50: 10.8 nM
  TGI: 98.9 nM
SK-OV-3 ovarian
  GI50: 6.89 nM
  TGI: 27.9 nM
OVCAR-3 ovarian
  GI50: 4.4 nM
  TGI: 34 nM
A498 renal
  GI50: 5.33 nM
  TGI: 14.1 nM
NCI-H226 lung
  GI50: 3.23 nM
  TGI: 17.7 nM
M14 melanoma
  GI50: 2.78 nM
  TGI: 6.22 nM
UACC-257 melanoma
  GI50: 11.2 nM
  TGI: 37.9 nM
A549 NSCLC
  GI50: 5.26 nM
  TGI: 32.9 nM
SK-MEL-28 melanoma
  GI50: 5.3 nM
  TGI: 22.5 nM
HL-60(TB) leukemia
  GI50: 2.39 nM
  TGI: 6.84 nM
K-562 leukemia
  GI50: 2.92 nM
  TGI: 14300 nM
SK-MEL-2 melanoma
  GI50: 12.4 nM
  TGI: 42.9 nM
T-47D breast
  GI50: 8.31 nM
  TGI: 28.8 nM
